In patent US20200190073A1, “SUBSTITUTED SUCCINIMIDE DERIVATIVES AS PESTICIDES” (BASF SE, priority 2017, published 2020) one finds mortality data, which are given here for seven compounds.

Holding throughout (type): in vivo
In test [1] the test system is Boll Weevil (Anthonomus grandis). The test can be described thus: B.5 Boll weevil, insect diet with eggs. Particulars: 120 h, read-out: mortality in comparison with untreated controls. How it is done:
B.5 Boll Weevil (Anthonomus grandis)
For evaluating control of boll weevil (Anthonomus grandis) the test unit consisted of 96-well-microtiter plates containing an insect diet and 5-10 A. grandis eggs.
The compounds were formulated using a solution containing 75% v/v water and 25% v/v DMSO. Different concentrations of formulated compounds were sprayed onto the insect diet at 5 μl, using a custom built micro atomizer, at two replications.
After application, microtiter plates were incubated at about 25±1° C. and about 75±5% relative humidity for 5 days. Egg and larval mortality was then visually assessed.

The test system of test [2] is Vetch Aphid (Megoura viciae). The test can be described thus: B.3 Vetch aphid, broad bean leaf disks. The conditions noted are these: foliar, 120 h, read-out: mortality in comparison with untreated controls. How it is done:
B.3 Vetch Aphid (Megoura viciae)
For evaluating control of vetch aphid (Megoura viciae) through contact or systemic means the test unit consisted of 24-well-microtiter plates containing broad bean leaf disks.
The compounds were formulated using a solution containing 75% v/v water and 25% v/v DMSO. Different concentrations of formulated compounds were sprayed onto the leaf disks at 2.5 μl, using a custom built micro atomizer, at two replications.
After application, the leaf disks were air-dried and 5-8 adult aphids placed on the leaf disks inside the microtiter plate wells. The aphids were then allowed to suck on the treated leaf disks and incubated at about 23±1° C. and about 50±5% relative humidity for 5 days. Aphid mortality and fecundity was then visually assessed.

Test [3] concerns Diamond back moth (Plutella xylostella). The test can be described thus: B.1 Diamond back moth, cabbage leaf dip. Particulars: foliar, 72 h, read-out: mortality in comparison with untreated controls. On the procedure: B.1 Diamond back moth (Plutella xylostella)
The active compound was dissolved at the desired concentration in a mixture of 1:1 (vol:vol) distilled water:acetone. Surfactant (Kinetic HV) was added at a rate of 0.01% (vol/vol). The test solution was prepared at the day of use.
Leaves of cabbage were dipped in test solution and air-dried. Treated leaves were placed in petri dishes lined with moist filter paper and inoculated with ten 3rd instar larvae. Mortality was recorded 72 hours after treatment. Feeding damages were also recorded using a scale of 0-100%.

Test [4] relates to Green Peach Aphid (Myzus persicae). The test can be described thus: B.2 Green peach aphid, artificial diet, systemic. Particulars: 72 h, read-out: mortality in comparison with untreated controls. The text has this:
B.2 Green Peach Aphid (Myzus persicae)
For evaluating control of green peach aphid (Myzus persicae) through systemic means the test unit consisted of 96-well-microtiter plates containing liquid artificial diet under an artificial mem brane.
The compounds were formulated using a solution containing 75% v/v water and 25% v/v DMSO. Different concentrations of formulated compounds were pipetted into the aphid diet, using a custom built pipetter, at two replications.
After application, 5-8 adult aphids were placed on the artificial membrane inside the microtiter plate wells. The aphids were then allowed to suck on the treated aphid diet and incubated at about 23±1° C. and about 50±5% relative humidity for 3 days. Aphid mortality and fecundity was then visually assessed.

Test [5] has as its system Orchid Thrips (Dichromothrips Corbetti). The test can be described thus: B.7 Orchid thrips, floral immersion. Particulars: Thrips, 72 h, read-out: mortality in comparison with untreated controls. On the procedure: B.7 Orchid Thrips (Dichromothrips Corbetti)
Dichromothrips corbetti adults used for bioassay were obtained from a colony maintained continuously under laboratory conditions. For testing purposes, the test compound is diluted in a 1:1 mixture of acetone:water (vol:vol), plus Kinetic HV at a rate of 0.01% v/v.
Thrips potency of each compound was evaluated by using a floral-immersion technique. All petals of individual, intact orchid flowers were dipped into treatment solution and allowed to dry in Petri dishes. Treated petals were placed into individual re-sealable plastic along with about 20 adult thrips. All test arenas were held under continuous light and a temperature of about 28° C. for duration of the assay. After 3 days, the numbers of live thrips were counted on each petal. The percent mortality was recorded 72 hours after treatment.

The test system of test [6] is Red Spider Mite (Tetranychus kanzawai). The test can be described thus: B.9 Red spider mite, sprayed cowpea beans. The conditions noted are these: 72 h, read-out: mortality in comparison with untreated controls. How it is done:
B.9 Red Spider Mite (Tetranychus kanzawai)
The active compound was dissolved at the desired concentration in a mixture of 1:1 (vol:vol) distilled water:acetone. Add surfactant (Kinetic HV) was added at a rate of 0.01% (vol/vol).The test solution was prepared at the day of use.
Potted cowpea beans of 4-5 days of age were cleaned with tap water and sprayed with 1-2 ml of the test solution using air driven hand atomizer. The treated plants were allowed to air dry and afterwards inoculated with 30 or more mites by clipping a cassava leaf section from rearing population. Treated plants were placed inside a holding room at about 25-27° C. and about 50-60% relative humidity. Percent mortality was assessed 72 hours after treatment.

Test [7] concerns Orchid Thrips (Dichromothrips Corbetti). The test can be described thus: CE.3 Orchid thrips, comparative test. The conditions noted are these: 96 h, read-out: % mortality in comparison to untreated controls. How it is done:
(§1) The tables show % mortality in comparison to untreated controls.
CE.3 Orchid Thrips (Dichromothrips Corbetti)
Dichromothrips corbetti adults used for bioassay were obtained from a colony maintained continuously under laboratory conditions. For testing purposes, the test compound was diluted to a concentration of 300 ppm (wt compound: vol diluent) in a 1:1 mixture of acetone:water (vol:vol), plus 0.01% vol/vol Kinetic® surfactant.
Thrips potency of each compound was evaluated by using a floral-immersion technique. Plastic petri dishes were used as test arenas. All petals of individual, intact orchid flowers were dipped into treatment solution and allowed to dry. Treated flowers were placed into individual petri dishes along with 10-15 adult thrips. The petri dishes were then covered with lids. All test arenas were held under continuous light and a temperature of about 280C for duration of the assay. After 4 days, the numbers of live thrips were counted on each flower, and along inner walls of each petri dish. The level of thrips mortality was extrapolated from pre-treatment thrips numbers.

Test [8] deals with Tobacco Budworm (Heliothis virescens). The test can be described thus: B.4 Tobacco budworm, insect diet with eggs. The conditions noted are these: 120 h, read-out: mortality in comparison with untreated controls. On the procedure:
B.4 Tobacco Budworm (Heliothis virescens)
For evaluating control of tobacco budworm (Heliothis virescens) the test unit consisted of 96-well-microtiter plates containing an insect diet and 15-25 H. virescens eggs.
The compounds were formulated using a solution containing 75% v/v water and 25% v/v DMSO. Different concentrations of formulated compounds were sprayed onto the insect diet at 10 μl, using a custom built micro atomizer, at two replications.
After application, microtiter plates were incubated at about 28±1° C. and about 80±5% relative humidity for 5 days. Egg and larval mortality was then visually assessed.

For test [9], the system named is Rice Green Leafhopper (Nephotettix virescens). The test can be described thus: B.8 Rice green leafhopper, sprayed rice seedlings. Particulars: 72 h, read-out: mortality in comparison with untreated controls. On the procedure:
B.8 Rice Green Leafhopper (Nephotettix virescens)
Rice seedlings were cleaned and washed 24 hours before spraying. The active compounds were formulated in 1:1 acetone:water (vol:vol), and 0.01% vol/vol surfactant (Kinetic HV) was added. Potted rice seedlings were sprayed with 5-6 ml test solution, air dried, covered with Mylar cages and inoculated with 10 adults. Treated rice plants were kept at about 28-29° C. and relative humidity of about 50-60%. Percent mortality was recorded after 72 hours.

Test [10] deals with Green Soldier Stink Bug (Nezara viridula). The test can be described thus: B.11 Green soldier stink bug, sprayed soybean pods. Particulars: 120 h, read-out: mortality in comparison with untreated controls. On the procedure:
B.11 Green Soldier Stink Bug (Nezara viridula)
The active compound was dissolved at the desired concentration in a mixture of 1:1 (vol:vol) distilled water:acetone. Surfactant (Kinetic HV) was added at a rate of 0.01% (vol/vol). The test solution was prepared at the day of use. Soybean pods were placed in glass Petri dishes lined with moist filter paper and inoculated with ten late 3rd instar N. viridula. Using a hand atomizer, approximately 2 ml solution is sprayed into each Petri dish. Assay arenas were kept at about 25° C. Percent mortality was recorded after 5 days.

Test [11] has as its system Rice Green Leafhopper (Nephotettix virescens). The test can be described thus: CE.5 Rice green leafhopper, comparative test. Particulars: 72 h, read-out: % mortality in comparison to untreated controls. On the procedure: as §1
CE.5 Rice Green Leafhopper (Nephotettix virescens)
Rice seedlings were cleaned and washed 24 hours before spraying. The active compounds were formulated in 50:50 acetone:water (vol:vol), and 0.1% vol/vol surfactant (EL 620) was added. Potted rice seedlings were sprayed with 5 ml test solution, air dried, placed in cages and inoculated with 10 adults. Treated rice plants were kept at about 28-29° C. and relative humidity of about 50-60%. Percent mortality was recorded after 72 hours.

What is called mortality is the share of the test organisms that died.

Consider `Cc1cc(C2=NOC(c3cc(Cl)c(F)c(Cl)c3)(C(F)(F)F)C2)ccc1C(=O)N[C@@H]1CC(=O)N(CC(F)(F)F)C1=O` (some centres unmarked) [Compound I-1-57], for which the mortality at 2500 ppm in test [1], in [2], in test [4] and in test [8] was over 75% throughout. In addition, the mortality at 300 ppm in test [3], in test [5], in [6] and in test [9] was over 75% in each case. For the same compound, in test [7], the mortality at 10 ppm was found to be 100%.

On to `CON1C(=O)C[C@@H](NC(=O)c2ccc(C3=NOC(c4cc(Cl)cc(Cl)c4)(C(F)(F)F)C3)cc2C)C1=O` (stereo partly drawn) [Compound I-1-55, 4-[5-(3,5-Dichlorophenyl)-5-(trifluoromethyl)-4H-isoxazol-3-yl]-N-[(3R)-1-methoxy-2,5-dioxo-pyrrolidin-3-yl]-2-methyl-benzamide], for which the mortality at 2500 ppm in [1], in test [2], in test [4] and in [8] was over 75% throughout. The mortality at 300 ppm in [3], in test [5], in [10], in [6] and in test [9] was over 75% each time.

As for `CCN1C(=O)C[C@@H](NC(=O)c2ccc(C3=NOC(c4cc(Cl)cc(Cl)c4)(C(F)(F)F)C3)cc2C)C1=O` (some centres unmarked) [Compound I-1-51], the mortality at 2500 ppm in test [1], in [2], in test [4] and in [8] was over 75% each time. The mortality at 300 ppm in [3], in [5], in test [10], in test [6] and in test [9] was over 75% in each case. Moreover, the mortality at 3 ppm in test [11] came to 90%. The mortality at 10 ppm in test [7] is 100%.

Turning to `O=C(N[C@@H]1CC(=O)N(O)C1=O)c1ccc(C2=NOC(c3cc(Cl)c(F)c(Cl)c3)(C(F)(F)F)C2)cc1Cl` (stereo partly drawn) [Compound I-1-33, 2-Chloro-4-[5-(3,5-dichloro-4-fluoro-phenyl)-5-(trifluoromethyl)-4H-isoxazol-3-yl]-N-[(3R)-1-hydroxy-2,5-dioxo-pyrrolidin-3-yl]benzamide], the mortality at 2500 ppm in test [1], in test [4] and in test [8] was over 75% each time. The mortality at 300 ppm in [3] and in test [5] was over 75% each time.

With `CNN1C(=O)C[C@@H](NC(=O)c2ccc(C3=NOC(c4cc(Cl)cc(Cl)c4)(C(F)(F)F)C3)cc2C)C1=O` (stereo partly drawn) [Compound I-1-45, 4-[5-(3,5-Dichlorophenyl)-5-(trifluoromethyl)-4H-isoxazol-3-yl]-2-methyl-N-[(3R)-1-(methylamino)-2,5-dioxo-pyrrolidin-3-yl]benzamide], the mortality at 2500 ppm in test [1], in [2], in [4] and in test [8] was over 75% in each case. The mortality at 300 ppm in [3], in test [5], in [10] and in test [6] was over 75% throughout.

With `O=C(N[C@@H]1CC(=O)N(CC(F)(F)F)C1=O)c1ccc(C2=NOC(c3cc(Cl)c(F)c(Cl)c3)(C(F)(F)F)C2)cc1Cl` (some centres unmarked) [Compound I-1-59], the mortality at 2500 ppm in test [1], in test [2], in test [4] and in test [8] was over 75% throughout. For the same compound, the mortality at 300 ppm in test [3], in test [5], in test [10], in [6] and in test [9] was over 75% throughout. The mortality at 10 ppm in test [7] worked out at 100%.

On to `CCN1C(=O)C[C@@H](NC(=O)c2ccc(C3=NOC(c4cc(Cl)c(F)c(Cl)c4)(C(F)(F)F)C3)cc2C)C1=O` (some centres unmarked) [Compound I-1-50], for which the mortality at 2500 ppm in test [1], in test [2], in [4] and in test [8] was over 75% each time. Further, the mortality at 300 ppm in [3], in test [5], in [10], in test [6] and in [9] was over 75% in each case. Besides, in [7], the mortality at 10 ppm was 100%.
